Source: PubChem BioAssay AID540323 (Johns Hopkins Ion Channel Center, 2011)
Calls of active or inactive are those of the source.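 Rule for the calls: active = peak hERG channel inhibition above 30% at some tested dose, together with a fitted dose response curve; inactive = no hERG inhibition at any dose, or no curve.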

Target: Voltage-gated inwardly rectifying potassium channel KCNH2 (Homo sapiens) (UniProt Q12809)
Test: KCNH2 potassium channel blockade – FluxOR Tl flux, hERG cells, CRC 2, selectivity assay for KCNK9 inhibitor project, SAR follow-up (AID 540323)
Settings: hERG-expressing cells, FluxOR thallium flux fluorescence; at 30 µM (top of the series); test wells contain dofetilide at its IC70

Sequence of Voltage-gated inwardly rectifying potassium channel KCNH2 (Homo sapiens) (Q12809 whole entry, looked up): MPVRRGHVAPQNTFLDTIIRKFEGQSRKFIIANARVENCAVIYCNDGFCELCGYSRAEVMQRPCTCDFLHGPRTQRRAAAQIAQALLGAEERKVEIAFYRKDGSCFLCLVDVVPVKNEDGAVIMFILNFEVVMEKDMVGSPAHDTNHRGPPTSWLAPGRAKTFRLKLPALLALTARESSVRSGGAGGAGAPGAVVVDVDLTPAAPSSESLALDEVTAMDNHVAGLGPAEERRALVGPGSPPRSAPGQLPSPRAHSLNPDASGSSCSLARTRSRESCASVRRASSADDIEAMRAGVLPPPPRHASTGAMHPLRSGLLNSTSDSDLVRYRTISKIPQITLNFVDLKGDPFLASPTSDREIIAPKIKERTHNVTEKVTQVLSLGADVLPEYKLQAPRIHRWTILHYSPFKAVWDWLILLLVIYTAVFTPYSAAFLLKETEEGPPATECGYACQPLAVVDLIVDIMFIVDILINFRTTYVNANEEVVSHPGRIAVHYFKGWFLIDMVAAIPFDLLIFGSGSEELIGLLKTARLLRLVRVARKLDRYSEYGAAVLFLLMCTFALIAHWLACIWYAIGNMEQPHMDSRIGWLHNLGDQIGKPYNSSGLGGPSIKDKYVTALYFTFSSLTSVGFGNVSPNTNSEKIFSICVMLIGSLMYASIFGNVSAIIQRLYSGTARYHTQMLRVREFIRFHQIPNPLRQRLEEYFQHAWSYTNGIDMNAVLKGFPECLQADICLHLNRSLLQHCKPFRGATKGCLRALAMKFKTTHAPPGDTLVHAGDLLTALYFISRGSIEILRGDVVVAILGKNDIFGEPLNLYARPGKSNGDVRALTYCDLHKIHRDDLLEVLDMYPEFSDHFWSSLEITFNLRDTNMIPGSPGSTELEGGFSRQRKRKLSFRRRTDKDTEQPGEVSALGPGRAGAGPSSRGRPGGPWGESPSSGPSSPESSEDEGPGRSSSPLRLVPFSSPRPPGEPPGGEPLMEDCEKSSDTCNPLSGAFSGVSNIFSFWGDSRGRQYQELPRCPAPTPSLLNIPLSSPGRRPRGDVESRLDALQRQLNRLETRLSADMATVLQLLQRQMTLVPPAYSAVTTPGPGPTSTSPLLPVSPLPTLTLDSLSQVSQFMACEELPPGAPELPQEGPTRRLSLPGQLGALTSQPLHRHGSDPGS

Structure (SMILES) | fluorescence ratio, lower = inhibition
Cc1cccc(C(=O)Nc2cccc(NC(=O)c3ccccc3C)c2)c1 | inactive
O=C(Nc1cccc(NC(=O)c2ccccc2Cl)c1)c1ccccc1 | inactive
COc1ccccc1-c1n[nH]c(=S)n1C(C)C1CC2CCC1C2 (configuration not stated) | inactive
CCOc1ccccc1NC(=O)c1cccc(C(=O)NC2CCCC2)c1 | inactive
Cc1ccc(C(=O)Nc2cccc(NC(=O)c3ccccc3)c2)cc1 | inactive
CC(C1CC2CCC1C2)n1c(C2CCOC2)n[nH]c1=S (configuration not stated) | inactive
COc1ccccc1C(=O)Nc1cccc(NC(=O)c2ccccc2C(C)C)c1 | inactive
CC(C)n1c(-c2ccco2)n[nH]c1=S | inactive
CC(C1CC2CCC1C2)n1c(-c2ccoc2)n[nH]c1=S (configuration not stated) | inactive
CC(C)(C)c1ccc(C(=O)Nc2cccc(NC(=O)c3ccccc3)c2)cc1 | inactive
CC(c1ccco1)n1c(-c2ccoc2)n[nH]c1=S (configuration not stated) | inactive
S=c1[nH]nc(-c2ccco2)n1CC1CCCCC1 | inactive
COc1ccccc1C(=O)Nc1cccc(NC(=O)c2cccc(C)c2)c1 | inactive
CCOc1ccccc1NC(=O)c1cccc(NC(=O)c2cccc(Cl)c2)c1 | inactive
O=C(Nc1cccc(NC(=O)c2ccc(C(F)(F)F)cc2)c1)c1ccccc1 | inactive
Cc1cccc(C(=O)Nc2cccc(NC(=O)c3ccc(N(C)C)cc3)c2)c1 | inactive
CCOc1ccccc1C(=O)Nc1cccc(NC(=O)c2ccccc2C(F)(F)F)c1 | inactive
CCOc1ccccc1NC(=O)c1cccc(NC(=O)c2ccc(C(F)(F)F)cc2)c1 | inactive
CCOc1ccccc1NC(=O)c1cccc(NC(=O)C(C)(C)C)c1 | inactive
COc1ccccc1NC(=O)c1cccc(NC(=O)c2ccccc2OC)c1 | inactive
O=C(Nc1cccc(NC(=O)c2ccsc2)c1)c1ccccc1 | inactive
CCOc1ccccc1C(=O)Nc1cccc(NC(=O)c2cccc(C)c2)c1 | inactive
CN(C)c1ccc(C(=O)Nc2cccc(NC(=O)c3ccccc3)c2)cc1 | inactive

Structure (SMILES) | fluorescence ratio, lower = inhibition
Cc1ccc(-c2n[nH]c(=S)n2C(C)C2CC3CCC2C3)cc1 (configuration not stated) | inactive
O=C(Nc1cccc(NC(=O)c2ccccc2)c1)c1ccccc1 | inactive
CCOc1ccccc1NC(=O)c1cccc(NC(=O)C2CCCCC2)c1 | inactive
CCOc1ccccc1NC(=O)c1cccc(NC(=O)CC2CCCCC2)c1 | inactive
CC(C1CC2CCC1C2)n1c(-c2ccsc2)n[nH]c1=S (configuration not stated) | inactive
O=C(Nc1cccc(NC(=O)c2ccccn2)c1)c1ccccc1 | inactive
Cc1cccc(C(=O)Nc2cccc(NC(=O)c3ccccc3C(C)C)c2)c1 | inactive
O=C(Nc1cccc(NC(=O)c2ccc(F)cc2)c1)c1ccccc1 | inactive
CC(C1CC2CCC1C2)n1c(-c2ccccc2)n[nH]c1=S (configuration not stated) | inactive
CCOc1ccccc1NC(=O)c1cccc(NC(=O)C2CCCO2)c1 (configuration not stated) | inactive
CCOc1ccccc1NC(=O)c1cccc(NC(=O)C2CCCC2)c1 | inactive
CCOc1ccccc1NC(=O)c1cccc(NC(=O)c2cccc(C(F)(F)F)c2)c1 | inactive
O=C(Nc1cccc(NC(=O)c2cccc(F)c2)c1)c1ccccc1 | inactive
COc1ccccc1C(=O)Nc1cccc(NC(=O)c2ccccc2OC(F)(F)F)c1 | inactive
O=C(Nc1cccc(NC(=O)c2cccnc2)c1)c1ccccc1 | inactive
Cc1cccc(C(=O)Nc2cccc(NC(=O)c3ccccc3OCC(C)C)c2)c1 | inactive
Cc1cccc(C(=O)Nc2cccc(NC(=O)c3cccc(C(F)(F)F)c3)c2)c1 | inactive
CCOc1ccccc1NC(=O)c1cccc(NC(=O)c2ccccc2C(F)(F)F)c1 | inactive
O=C(Nc1cccc(NC(=O)c2ccncc2)c1)c1ccccc1 | inactive
Cc1cccc(C(=O)Nc2cccc(NC(=O)c3ccc(C(F)(F)F)cc3)c2)c1 | inactive
Cc1cccc(S(=O)(=O)Nc2cccc(NC(=O)c3ccccc3)c2)c1 | inactive
CCOc1ccccc1NC(=O)c1cccc(NC(=O)c2ccc(Cl)cc2)c1 | inactive

Same assay, conditions: hERG-expressing cells, FluxOR thallium flux fluorescence; test wells contain dofetilide at its IC70

Structure (SMILES) | IC50
Cc1cccc(C(=O)Nc2cccc(NC(=O)c3cccc(C)c3)c2)c1 | 12.4 µM
Cc1cccc(C(=O)Nc2cccc(NC(=O)c3ccccc3)c2)c1 | 8.08 µM
